Consider 8 compounds from PubChem BioAssay (NCI).

Structures are written as SMILES. Where “and” joins values, the source holds several entries; their conditions need not be identical. Equal entries are not always repeated.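 Assay format: 96-well plates, 48-hour exposure. GI50 = concentration required for 50% inhibition of growth. TGI: total growth inhibition.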 A value given as a limit tells only on which side of the number the result lay.

What all share (assay): DTP human tumour cell line panel, 48 h
Assay [1] has as its system NCI/ADR-RES ovarian.
Assay [2] has as its system IGROV1 ovarian.
In assay [3] the test system is KM12 colon.
Assay [4] deals with SK-MEL-28 melanoma.
Assay [5] has as its system A549 NSCLC.
Assay [6] has as its system MDA-MB-231 breast.
The subject of assay [7] is NCI-H460 lung.
The test system of assay [8] is SK-MEL-2 melanoma.
Assay [9] deals with HS 578T breast.
Assay [10] has as its system NCI-H226 lung.

A word on the GI50: it is the concentration that inhibits growth by half. As usually defined, the TGI is the concentration at which net growth stops. A higher TGI goes with lower sensitivity of the cells. Regarding `O=C(COc1ccc(Cl)cc1Cl)NNc1ccc([N+](=O)[O-])cc1`, the GI50 in [1] was 84 µM; in assay [2], 36 µM; in assay [3], greater than 100 µM; in assay [4], 39.1 µM; in [5], greater than 100 µM; in [6], 30.8 µM. Besides, the GI50 in [7] is greater than 100 µM; in assay [8] it was 22 µM; in assay [9], 25.6 µM; in [10] it was 28.9 µM. Besides, the TGI in [1], in assay [2], in assay [3], in assay [4], in assay [5] and in assay [6] was greater than 100 µM each time. In addition, the total growth inhibition concentration (TGI) in [7] was greater than 100 µM; in assay [8], 39.7 µM; in assay [9], 95.4 µM; in assay [10] it was greater than 100 µM.

In the case of `Nc1ncnc2c1ncn2Cc1ccc(CCl)cc1`, the GI50 in assay [1] was 18.7 µM; in [2], 25.8 µM; in assay [3], 13.6 µM; in assay [4], 21.7 µM; in assay [5], 17.1 µM; in assay [6], 17.5 µM. Also, the GI50 in assay [7] was 17 µM; in [8], 32.6 µM; in assay [9] it was 25.9 µM; in assay [10] it was 20.6 µM. Also, the TGI in assay [1] is 44.5 µM; in assay [2] it was 66.5 µM; in assay [3] it was 37.2 µM; in assay [4], greater than 100 µM; in [5], 35.1 µM; in assay [6] it was 35.8 µM. The TGI in assay [7] turned out to be 41.1 µM; in assay [8], 97.5 µM; in assay [9] it was 58.1 µM; in assay [10], 35.3 µM.

With `OC(CBr)C(O)C(O)C(O)CBr` (configuration not stated), the GI50 in [1] was greater than 100 µM; in assay [2], 49.4 µM and > 100 µM. Besides, the TGI in assay [1], in [2], in assay [3], in [4], in assay [5] and in [6] was greater than 100 µM throughout. Moreover, the TGI in assay [7], in assay [8], in assay [9] and in assay [10] was greater than 100 µM each time.

Consider `CCN(CC(O)COc1ccc2c(c1)[n+]([O-])nc(N)[n+]2[O-])C(C)=O` (configuration not stated), for which the TGI in [1], in [2], in [3], in [4], in assay [5] and in assay [6] was greater than 100 µM each time. In addition, the total growth inhibition concentration (TGI) in [7], in [8], in assay [9] and in assay [10] was greater than 100 µM throughout.

For the compound `Cc1cc(S(=O)(=O)Nc2nc3ccccc3s2)c(SCc2ccccc2)cc1Cl`, the GI50 in assay [1] is 15.8 µM; in [2], 27.4 µM; in [3], 18.8 µM; in assay [4], 21.9 µM; in assay [5] it was 13.9 µM; in assay [6] it was 16.9 µM. Besides, the GI50 is 21.4 µM in [7], 37.2 µM in assay [8], 20.2 µM in assay [9] and 19.3 µM in [10]. Moreover, the TGI in [1] amounted to 35.9 µM; in assay [2], 94.3 µM; in [3], 61.9 µM; in assay [4] it was 52.7 µM; in [5], 31.8 µM; in [6], 37.7 µM. Also, the TGI in assay [7] is greater than 100 µM; in assay [8], greater than 100 µM; in assay [9] it was 62 µM; in assay [10], 45.9 µM.

`Cc1c(-c2c(F)cc(C(N)=O)c3[nH]c4c(c23)CC[C@H](C(C)(C)O)C4)cccc1-n1c(=O)c2cccc(F)c2n(C)c1=O`: the GI50 in assay [1] is 3.58 µM; in [2] it was 3.19 µM; in assay [3] it was 0.399 µM; in [4], 4.59 µM; in [5] it was 2.05 µM; in assay [6], 4.34 µM. Also, the GI50 in assay [7] is 3.43 µM; in assay [8], 3.05 µM; in assay [9], 4.62 µM; in assay [10], 3.84 µM. Moreover, the TGI in assay [1], in assay [2], in [3], in [4], in assay [5] and in assay [6] was greater than 100 µM each time. The TGI is greater than 100 µM in [7], 26 µM in [8], greater than 100 µM in assay [9] and 26.4 µM in assay [10].

Regarding `O=C(O)[C@@H](Cc1ccccc1)NS(=O)(=O)c1ccc(-c2ccccc2)cc1`, the GI50 in assay [1], in assay [2], in assay [3], in assay [4], in [5] and in [6] was greater than 100 µM each time. The GI50 in [7], in assay [8], in [9] and in assay [10] was greater than 100 µM each time. Moreover, the TGI in assay [1], in assay [2], in [3], in assay [4], in [5] and in assay [6] was greater than 100 µM in each case. Moreover, the TGI in assay [7], in [8], in assay [9] and in assay [10] was greater than 100 µM throughout.

With `O=[N+]([O-])c1ccc(NC(c2ccccc2)c2ccc3cccnc3c2O)cc1` (configuration not stated), the GI50 was 0.288 µM in [1]; 0.388 µM in [2]; 0.449 µM in assay [3]; 0.697 µM in assay [4]; 0.878 µM in [5]; 0.696 µM in assay [6]. The GI50 in [7] was 0.253 µM; in [8], 0.943 µM; in assay [9], 0.52 µM; in assay [10], 0.505 µM. The TGI in assay [1] was greater than 23.4 µM; in assay [2], greater than 51.5 µM; in assay [3], greater than 100 µM; in [4], greater than 100 µM; in assay [5], greater than 100 µM; in assay [6] it was greater than 100 µM. In addition, the TGI in assay [7] was 1.39 µM; in assay [8], greater than 100 µM; in assay [9], greater than 100 µM; in assay [10] it was 9.19 µM.
